This note sets out measurements from the supplement of paper PMC12463676, “Small-molecule dissolution of stress granules by redox modulation benefits ALS models” (Nature Chemical Biology, 2025).

Compound in one assay: O=[As]([O-])(O)O.[K+] [potassium arsenate]
The experiment in a line: thermal stability z-score vs DMSO; higher = more thermally stabilized by treatment. To be noted: HeLa; arsenate concentration 1 mM. How it is done: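 Cellular thermal proteome profiling in HeLa cells treated with 1 mM arsenate for 1 h (DMSO pretreatment), heated to ten temperatures (37-66.3 °C). Soluble protein was quantified by TMT mass spectrometry relative to DMSO controls; the thermal stability score was transformed to a z-score; mean of n = 3 experiments.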

Compound in the next assay: NC(=O)CCCCC1CCSS1 [lipoamide]
The description is as above. To be noted: HeLa, lipoamide concentration 100 µM. The method, then:
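Cellular thermal proteome profiling in HeLa cells. Cells were treated with 100 µM lipoamide for 1 h, with or without 1 mM arsenate for a further 1 h, then heated to ten temperatures (37-66.3 °C), and soluble protein was quantified by TMT mass spectrometry relative to 0.1% DMSO controls. The thermal stability score (sum of log2 fold changes minus the abundance score) was transformed to a z-score; mean of n = 3 experiments.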

Where [1] appears, read: arsenate co-treatment: 1 mM arsenate 1 h.
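Also: each temperature applied for 3 min, abundance score taken as mean log2 fold change at the two lowest temperatures, z-score obtained by mean subtraction and division by SD.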

Sequence of UniProt Q9Y2L9 (Q9Y2L9 whole entry): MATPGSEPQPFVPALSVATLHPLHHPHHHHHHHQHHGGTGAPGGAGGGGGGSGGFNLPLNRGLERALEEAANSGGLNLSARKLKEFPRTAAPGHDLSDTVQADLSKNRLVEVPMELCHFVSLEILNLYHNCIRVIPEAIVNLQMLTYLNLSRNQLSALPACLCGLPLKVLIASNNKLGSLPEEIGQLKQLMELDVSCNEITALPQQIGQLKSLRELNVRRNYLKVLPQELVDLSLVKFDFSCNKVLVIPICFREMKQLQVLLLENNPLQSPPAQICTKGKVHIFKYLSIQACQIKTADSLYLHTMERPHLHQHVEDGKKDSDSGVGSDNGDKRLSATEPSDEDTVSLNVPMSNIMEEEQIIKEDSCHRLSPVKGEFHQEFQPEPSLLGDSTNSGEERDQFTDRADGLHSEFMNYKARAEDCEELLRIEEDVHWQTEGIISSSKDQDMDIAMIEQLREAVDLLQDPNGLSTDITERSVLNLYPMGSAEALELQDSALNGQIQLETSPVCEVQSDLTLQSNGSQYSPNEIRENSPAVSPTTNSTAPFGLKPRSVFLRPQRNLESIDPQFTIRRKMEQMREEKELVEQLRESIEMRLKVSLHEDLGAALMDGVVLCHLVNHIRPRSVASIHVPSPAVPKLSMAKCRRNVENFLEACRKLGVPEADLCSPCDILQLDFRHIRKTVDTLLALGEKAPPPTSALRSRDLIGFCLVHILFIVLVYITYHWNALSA
Sequence of UniProt Q5VSL9 (Q5VSL9 whole entry): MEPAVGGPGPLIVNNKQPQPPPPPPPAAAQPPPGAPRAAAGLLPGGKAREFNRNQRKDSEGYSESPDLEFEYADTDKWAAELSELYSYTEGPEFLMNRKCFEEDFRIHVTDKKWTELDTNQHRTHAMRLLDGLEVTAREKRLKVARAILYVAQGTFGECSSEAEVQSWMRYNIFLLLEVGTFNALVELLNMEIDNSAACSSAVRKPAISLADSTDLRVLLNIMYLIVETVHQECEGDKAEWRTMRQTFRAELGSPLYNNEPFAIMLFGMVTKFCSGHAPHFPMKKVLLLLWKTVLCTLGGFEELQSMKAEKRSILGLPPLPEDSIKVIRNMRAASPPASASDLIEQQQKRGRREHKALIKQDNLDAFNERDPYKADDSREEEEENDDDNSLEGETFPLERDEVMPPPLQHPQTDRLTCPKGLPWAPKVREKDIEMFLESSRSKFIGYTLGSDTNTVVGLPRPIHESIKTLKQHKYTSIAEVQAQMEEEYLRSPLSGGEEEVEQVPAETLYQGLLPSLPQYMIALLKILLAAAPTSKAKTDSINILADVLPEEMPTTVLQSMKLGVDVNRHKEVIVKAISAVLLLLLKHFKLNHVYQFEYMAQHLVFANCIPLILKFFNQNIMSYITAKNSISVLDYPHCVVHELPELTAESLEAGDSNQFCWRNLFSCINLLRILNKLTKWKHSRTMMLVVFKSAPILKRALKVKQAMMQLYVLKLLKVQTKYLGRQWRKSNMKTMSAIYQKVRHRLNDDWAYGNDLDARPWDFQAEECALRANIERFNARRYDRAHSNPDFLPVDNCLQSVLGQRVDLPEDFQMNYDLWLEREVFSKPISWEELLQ
Sequence of UniProt O75976 (O75976 whole entry): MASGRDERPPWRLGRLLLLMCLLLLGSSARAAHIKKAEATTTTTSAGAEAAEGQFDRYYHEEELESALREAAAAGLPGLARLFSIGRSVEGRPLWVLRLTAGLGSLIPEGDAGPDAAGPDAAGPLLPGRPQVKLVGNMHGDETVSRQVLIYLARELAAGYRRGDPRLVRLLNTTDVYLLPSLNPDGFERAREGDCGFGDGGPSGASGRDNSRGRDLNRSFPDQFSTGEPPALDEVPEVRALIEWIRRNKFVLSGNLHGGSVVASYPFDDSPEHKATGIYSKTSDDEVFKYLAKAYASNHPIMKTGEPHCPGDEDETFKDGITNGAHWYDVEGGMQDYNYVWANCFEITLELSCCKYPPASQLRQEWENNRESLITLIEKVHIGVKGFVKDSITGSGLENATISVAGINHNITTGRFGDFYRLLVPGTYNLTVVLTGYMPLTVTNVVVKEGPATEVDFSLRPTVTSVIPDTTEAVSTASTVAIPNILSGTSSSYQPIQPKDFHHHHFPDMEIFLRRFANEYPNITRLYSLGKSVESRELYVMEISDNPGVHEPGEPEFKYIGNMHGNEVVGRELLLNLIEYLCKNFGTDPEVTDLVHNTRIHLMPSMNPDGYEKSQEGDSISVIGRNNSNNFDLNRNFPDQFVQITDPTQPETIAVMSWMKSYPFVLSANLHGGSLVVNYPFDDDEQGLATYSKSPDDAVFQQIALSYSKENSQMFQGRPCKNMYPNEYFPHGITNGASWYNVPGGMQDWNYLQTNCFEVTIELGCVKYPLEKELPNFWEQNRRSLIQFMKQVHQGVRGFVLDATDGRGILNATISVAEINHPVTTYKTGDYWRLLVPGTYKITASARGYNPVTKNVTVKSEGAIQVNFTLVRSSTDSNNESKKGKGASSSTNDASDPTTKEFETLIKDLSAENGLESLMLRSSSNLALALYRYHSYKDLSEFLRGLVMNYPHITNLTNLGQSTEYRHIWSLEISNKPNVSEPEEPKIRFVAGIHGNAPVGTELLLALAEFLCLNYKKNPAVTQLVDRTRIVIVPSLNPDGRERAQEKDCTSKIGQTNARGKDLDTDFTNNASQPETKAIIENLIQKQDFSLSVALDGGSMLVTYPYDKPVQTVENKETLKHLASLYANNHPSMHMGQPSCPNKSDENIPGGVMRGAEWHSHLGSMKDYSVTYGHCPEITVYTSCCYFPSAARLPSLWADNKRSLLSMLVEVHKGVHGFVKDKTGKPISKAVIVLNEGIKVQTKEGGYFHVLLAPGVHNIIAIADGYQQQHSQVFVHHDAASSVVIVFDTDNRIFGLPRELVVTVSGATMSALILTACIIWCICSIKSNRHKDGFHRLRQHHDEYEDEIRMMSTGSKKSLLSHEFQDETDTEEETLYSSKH
Sequence of UniProt P40938 (P40938 whole entry): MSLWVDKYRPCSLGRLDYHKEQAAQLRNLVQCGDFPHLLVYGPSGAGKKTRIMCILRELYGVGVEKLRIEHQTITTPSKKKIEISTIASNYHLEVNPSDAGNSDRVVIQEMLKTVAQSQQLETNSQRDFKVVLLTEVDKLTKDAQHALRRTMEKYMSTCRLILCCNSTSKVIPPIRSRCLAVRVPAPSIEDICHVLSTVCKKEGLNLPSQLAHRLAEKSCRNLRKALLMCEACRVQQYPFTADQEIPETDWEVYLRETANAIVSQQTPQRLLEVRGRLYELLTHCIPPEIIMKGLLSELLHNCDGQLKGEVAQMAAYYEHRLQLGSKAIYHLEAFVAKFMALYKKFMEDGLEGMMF
Sequence of UniProt Q8NCN5 (Q8NCN5 whole entry): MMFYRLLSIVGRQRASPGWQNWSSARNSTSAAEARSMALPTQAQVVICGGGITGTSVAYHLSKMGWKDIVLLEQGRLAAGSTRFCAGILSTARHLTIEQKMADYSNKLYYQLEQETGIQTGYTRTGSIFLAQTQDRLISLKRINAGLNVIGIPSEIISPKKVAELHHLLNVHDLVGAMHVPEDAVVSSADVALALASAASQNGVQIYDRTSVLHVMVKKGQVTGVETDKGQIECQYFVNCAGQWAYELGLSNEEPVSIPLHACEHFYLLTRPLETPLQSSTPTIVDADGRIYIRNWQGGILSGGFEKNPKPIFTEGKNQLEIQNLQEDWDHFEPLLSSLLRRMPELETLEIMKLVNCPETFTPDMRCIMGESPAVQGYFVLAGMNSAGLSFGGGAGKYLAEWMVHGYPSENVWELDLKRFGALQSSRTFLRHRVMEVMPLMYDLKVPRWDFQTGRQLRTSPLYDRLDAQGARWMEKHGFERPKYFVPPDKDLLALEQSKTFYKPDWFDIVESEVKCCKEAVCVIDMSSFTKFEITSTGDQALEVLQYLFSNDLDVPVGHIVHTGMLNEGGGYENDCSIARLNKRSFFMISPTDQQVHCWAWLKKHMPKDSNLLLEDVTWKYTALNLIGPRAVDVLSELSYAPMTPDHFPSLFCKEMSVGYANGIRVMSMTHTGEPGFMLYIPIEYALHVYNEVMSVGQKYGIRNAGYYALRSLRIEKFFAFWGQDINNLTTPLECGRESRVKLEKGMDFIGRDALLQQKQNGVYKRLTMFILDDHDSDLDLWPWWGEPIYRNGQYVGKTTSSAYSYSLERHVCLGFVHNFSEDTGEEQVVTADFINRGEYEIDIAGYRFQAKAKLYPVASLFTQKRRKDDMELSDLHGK
Sequence of UniProt P60174 (P60174 whole entry): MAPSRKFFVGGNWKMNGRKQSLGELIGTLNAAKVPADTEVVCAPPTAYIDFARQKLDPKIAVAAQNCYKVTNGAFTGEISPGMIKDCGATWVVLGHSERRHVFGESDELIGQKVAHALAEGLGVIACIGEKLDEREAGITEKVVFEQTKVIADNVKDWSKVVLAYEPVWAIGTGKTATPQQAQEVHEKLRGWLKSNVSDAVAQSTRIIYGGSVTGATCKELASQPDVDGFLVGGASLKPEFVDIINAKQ
Sequence of UniProt Q8WWY3 (Q8WWY3 whole entry): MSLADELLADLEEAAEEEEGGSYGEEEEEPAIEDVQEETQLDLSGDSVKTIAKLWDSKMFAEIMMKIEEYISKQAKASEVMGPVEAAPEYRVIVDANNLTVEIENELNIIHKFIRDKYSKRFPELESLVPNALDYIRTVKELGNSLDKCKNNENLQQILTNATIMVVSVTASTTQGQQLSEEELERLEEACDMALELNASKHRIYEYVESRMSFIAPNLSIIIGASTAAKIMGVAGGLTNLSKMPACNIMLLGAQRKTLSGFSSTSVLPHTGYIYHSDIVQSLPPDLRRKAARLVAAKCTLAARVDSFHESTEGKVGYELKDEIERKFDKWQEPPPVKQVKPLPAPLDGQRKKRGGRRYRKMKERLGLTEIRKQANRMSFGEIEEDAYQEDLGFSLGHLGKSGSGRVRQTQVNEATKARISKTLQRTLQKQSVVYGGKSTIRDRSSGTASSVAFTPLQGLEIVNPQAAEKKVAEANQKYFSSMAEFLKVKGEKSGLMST
Sequence of UniProt P26447 (P26447 whole entry, looked up): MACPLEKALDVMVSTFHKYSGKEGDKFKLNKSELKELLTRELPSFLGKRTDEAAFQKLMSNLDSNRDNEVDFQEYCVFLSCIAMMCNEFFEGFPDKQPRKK

Consider BLOC1S1 (UniProt P78537), for which the thermal stability z-score was -0.255 with potassium arsenate, -0.0484 with lipoamide (setting [1]) and 0.202 in the assay with lipoamide (arsenate co-treatment: none).

Take CPD (UniProt O75976): the thermal stability z-score is 0.546 with potassium arsenate, -0.796 with lipoamide (setting [1]) and -0.794 with lipoamide (arsenate co-treatment: none).

In the case of PDPR (UniProt Q8NCN5), the thermal stability z-score in the assay with potassium arsenate is -0.181; with lipoamide (setting [1]), 0.399; with lipoamide (arsenate co-treatment: none) it was 0.429.

BRE (UniProt Q9NXR7): the results for the thermal stability z-score with potassium arsenate, in the assay with lipoamide (setting [1]) and in the assay with lipoamide (arsenate co-treatment: none) were 0.319, 0.462 and -0.15, respectively.

As to CDK12 (UniProt Q9NYV4), the thermal stability z-score with potassium arsenate was -0.614; with lipoamide (setting [1]) it was -0.233; with lipoamide (arsenate co-treatment: none) it was 0.0238.

LRCH1 (UniProt Q9Y2L9): the thermal stability z-score in the assay with potassium arsenate amounted to 0.494; with lipoamide (setting [1]), 0.0183; with lipoamide (arsenate co-treatment: none), 0.0529.

With RPS2 (UniProt P15880), the thermal stability z-score with potassium arsenate is -0.532; in the assay with lipoamide (setting [1]), 0.307; with lipoamide (arsenate co-treatment: none), 0.259.

As to ARL2 (UniProt P36404), the thermal stability z-score was 0.664 in the assay with potassium arsenate, -0.405 with lipoamide (setting [1]) and -0.0766 in the assay with lipoamide (arsenate co-treatment: none).

Regarding ZNF703 (UniProt Q9H7S9), the thermal stability z-score with potassium arsenate amounted to 0.019; in the assay with lipoamide (setting [1]), 0.173; in the assay with lipoamide (arsenate co-treatment: none), 0.148.

As for TMX3 (UniProt Q96JJ7), the thermal stability z-score was 1.29 in the assay with potassium arsenate, -0.503 with lipoamide (setting [1]) and -0.791 in the assay with lipoamide (arsenate co-treatment: none).

Regarding STRIP1 (UniProt Q5VSL9), the values for the thermal stability z-score with potassium arsenate, with lipoamide (setting [1]) and with lipoamide (arsenate co-treatment: none) were 1.36, 0.978 and 1.5, respectively.

Turning to THG1L (UniProt Q9NWX6), the results for the thermal stability z-score with potassium arsenate, in the assay with lipoamide (setting [1]) and with lipoamide (arsenate co-treatment: none) were 0.463, 0.578 and 0.85, respectively.

Consider SYF2 (UniProt O95926), for which the thermal stability z-score in the assay with potassium arsenate is -0.951; with lipoamide (setting [1]) it was 1.83; with lipoamide (arsenate co-treatment: none), 0.837.

Take S100A4 (UniProt P26447): the thermal stability z-score with potassium arsenate was -1.43; in the assay with lipoamide (setting [1]), -0.414; in the assay with lipoamide (arsenate co-treatment: none), -0.145.

In the case of TP53BP2 (UniProt Q13625), the thermal stability z-score with potassium arsenate is -1.29; in the assay with lipoamide (setting [1]), -1.06; with lipoamide (arsenate co-treatment: none), 0.188.

Take PNPLA4 (UniProt P41247): the thermal stability z-score in the assay with potassium arsenate is 1.28; in the assay with lipoamide (setting [1]) it was 0.634; with lipoamide (arsenate co-treatment: none), 0.101.

With SLC12A2 (UniProt P55011), the figures for the thermal stability z-score in the assay with potassium arsenate, with lipoamide (setting [1]) and with lipoamide (arsenate co-treatment: none) were -0.72, -0.435 and -0.195, respectively.

In the case of MINPP1 (UniProt Q9UNW1), the thermal stability z-score is -0.105 with potassium arsenate, -3.92 with lipoamide (setting [1]) and -4.05 with lipoamide (arsenate co-treatment: none).

On to PRPF31 (UniProt Q8WWY3), for which the figures for the thermal stability z-score with potassium arsenate, in the assay with lipoamide (setting [1]) and with lipoamide (arsenate co-treatment: none) were -0.687, -0.0354 and -0.524, respectively.

Take TPI1 (UniProt P60174): the thermal stability z-score in the assay with potassium arsenate was -0.48; with lipoamide (setting [1]), 0.408; with lipoamide (arsenate co-treatment: none), 0.0882.

As to RRS1 (UniProt Q15050), the figures for the thermal stability z-score with potassium arsenate, with lipoamide (setting [1]) and with lipoamide (arsenate co-treatment: none) were -2.24, 1.32 and -0.132, respectively.

As to RFC3 (UniProt P40938), the figures for the thermal stability z-score with potassium arsenate, with lipoamide (setting [1]) and in the assay with lipoamide (arsenate co-treatment: none) were -0.0936, -0.548 and -0.365, respectively.

On to FANCI (UniProt Q9NVI1), for which the results for the thermal stability z-score in the assay with potassium arsenate, with lipoamide (setting [1]) and with lipoamide (arsenate co-treatment: none) were -1.2, -0.722 and -0.439, respectively.

DECR1 (UniProt Q16698): the thermal stability z-score was -0.0171 with potassium arsenate, -0.133 with lipoamide (setting [1]) and 0.18 in the assay with lipoamide (arsenate co-treatment: none).

On to SLC7A5 (UniProt Q01650), for which the figures for the thermal stability z-score with potassium arsenate, with lipoamide (setting [1]) and with lipoamide (arsenate co-treatment: none) were 1.47, 1.39 and 1.19, respectively.

As for KDSR (UniProt Q06136), the thermal stability z-score in the assay with potassium arsenate was determined as 0.275; with lipoamide (setting [1]) it was 0.0293; with lipoamide (arsenate co-treatment: none), 0.264.

As for KLHL42 (UniProt Q9P2K6), the thermal stability z-score was -0.142 with potassium arsenate, -0.26 with lipoamide (setting [1]) and -0.0102 in the assay with lipoamide (arsenate co-treatment: none).

On to VPS37B (UniProt Q9H9H4), for which the results for the thermal stability z-score with potassium arsenate, with lipoamide (setting [1]) and in the assay with lipoamide (arsenate co-treatment: none) were -0.0299, -0.0126 and 0.246, respectively.

In the case of MFN1 (UniProt Q8IWA4), the thermal stability z-score with potassium arsenate was 0.157; with lipoamide (setting [1]), -0.522; with lipoamide (arsenate co-treatment: none), -0.191.

Regarding POLR2C (UniProt P19387), the thermal stability z-score in the assay with potassium arsenate worked out at 0.481; in the assay with lipoamide (setting [1]), 0.705; with lipoamide (arsenate co-treatment: none), 1.15.

In the case of GCN1 (UniProt Q92616), the thermal stability z-score with potassium arsenate was 0.522; with lipoamide (setting [1]), -0.244; with lipoamide (arsenate co-treatment: none) it was 0.292.

For the target SLC38A2 (UniProt Q96QD8), the figures for the thermal stability z-score with potassium arsenate, in the assay with lipoamide (setting [1]) and with lipoamide (arsenate co-treatment: none) were 0.774, 0.351 and 0.272, respectively.

Take PTTG1 (UniProt O95997): the results for the thermal stability z-score in the assay with potassium arsenate, with lipoamide (setting [1]) and with lipoamide (arsenate co-treatment: none) were -1.58, -1.19 and -1.5, respectively.

THTPA (UniProt Q9BU02): the thermal stability z-score with potassium arsenate is 0.53; in the assay with lipoamide (setting [1]), 0.32; with lipoamide (arsenate co-treatment: none) it was -0.0368.

Turning to CISD3 (UniProt P0C7P0), the thermal stability z-score turned out to be 0.0591 with potassium arsenate, 1.09 with lipoamide (setting [1]) and 1.49 with lipoamide (arsenate co-treatment: none).

As for MBD2 (UniProt Q9UBB5), the thermal stability z-score was -0.294 in the assay with potassium arsenate, 0.0418 with lipoamide (setting [1]) and 0.0688 with lipoamide (arsenate co-treatment: none).

In the case of UBE2N (UniProt P61088), the results for the thermal stability z-score with potassium arsenate, with lipoamide (setting [1]) and with lipoamide (arsenate co-treatment: none) were -0.899, -0.524 and -0.293, respectively.

Take ADK (UniProt P55263): the thermal stability z-score with potassium arsenate is -1.35; with lipoamide (setting [1]) it was -0.131; with lipoamide (arsenate co-treatment: none), -0.279.

Regarding PRELID3B (UniProt Q9Y3B1), the thermal stability z-score was -0.684 in the assay with potassium arsenate, -0.72 with lipoamide (setting [1]) and -0.844 with lipoamide (arsenate co-treatment: none).

In the case of TMPO, the values for the thermal stability z-score in the assay with potassium arsenate, with lipoamide (setting [1]) and with lipoamide (arsenate co-treatment: none) were 2.87, 0.194 and 0.0563, respectively.

For the target NT5C3A (UniProt Q9H0P0), the thermal stability z-score with potassium arsenate is -1.77; in the assay with lipoamide (setting [1]), 0.0681; in the assay with lipoamide (arsenate co-treatment: none) it was 0.155.

As for ZHX3 (UniProt Q9H4I2), the thermal stability z-score was -0.227 with potassium arsenate, -0.187 with lipoamide (setting [1]) and -0.116 in the assay with lipoamide (arsenate co-treatment: none).

With SCFD1 (UniProt Q8WVM8), the figures for the thermal stability z-score with potassium arsenate, with lipoamide (setting [1]) and with lipoamide (arsenate co-treatment: none) were 0.224, -0.771 and -0.32, respectively.
